Reference: US20170360073A1, “OPTIMIZED NUTRIENT FATTY ACID COMPOSITION” (priority 2014, published 2017)

Test system: patients with menopausal symptoms
Assay: Case study: menopausal symptoms, transdermal estriol in oil (Example 15)
Type: in vivo, human
Details: after 15 and 30 days; one patient each: estriol 1 mg oral tablet daily; example 7 oil 0.5 ml twice daily on skin (0.25 mg estriol daily); oral multivitamin and minerals tablet
Protocol: Three patients with menopausal symptoms were taken for study. The patients were divided into three groups. First patient was advised to take orally estriol one mg as tablet daily. Second patient was advised to apply over skin of thighs and abdomen 0.5 ml twice daily medicated optimized nutrient oil prepared by a process as given in example-7 which contains 0.25 mg estriol/ml, so that 0.25 mg estriol is absorbed daily by the body through skin. Third patient was given oral multivitamin and minerals as tablet.

**Q.** Which “hot flushes, mood changes and sleep pattern” value does the source give for `C[C@]12CC[C@@H]3c4ccc(O)cc4CC[C@H]3[C@@H]1C[C@@H](O)[C@@H]2O` [estriol] here?
**A.** improvement in all the three symptoms
